According to the supplement of paper PMC10307832:

How the values were obtained:
Assay in all cases: relative viability (nuclei count vs DMSO), 5 days (fraction); higher = more cells survive
Tozasertib + Decitabine = compound: Cc1cc(Nc2cc(N3CCN(C)CC3)nc(Sc3ccc(NC(=O)C4CC4)cc3)n2)n[nH]1 [Tozasertib] + Nc1ncn([C@H]2C[C@H](O)[C@@H](CO)O2)c(=O)n1 [Decitabine] (partner 2 µM)
How it was run: (§1)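 Relative viability is defined as nuclei in treated wells over nuclei in vehicle wells. Duplicate plates were run and medians reported. Lung cancer cell lines in 1536-well plates were dosed by pin tool one day after seeding, with one drug or with a fixed anchor-drug dose plus five library-drug doses (not always all listed) in √10 steps, and nuclei were counted after 5 days.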

Tozasertib + Navitoclax = compound: Cc1cc(Nc2cc(N3CCN(C)CC3)nc(Sc3ccc(NC(=O)C4CC4)cc3)n2)n[nH]1 [Tozasertib] + CC1(C)CCC(c2ccc(Cl)cc2)=C(CN2CCN(c3ccc(C(=O)NS(=O)(=O)c4ccc(N[C@H](CCN5CCOCC5)CSc5ccccc5)c(S(=O)(=O)C(F)(F)F)c4)cc3)CC2)C1 [Navitoclax] (partner 0.5 µM)
How it was run: as §1

Tozasertib + Olaparib = compound: Cc1cc(Nc2cc(N3CCN(C)CC3)nc(Sc3ccc(NC(=O)C4CC4)cc3)n2)n[nH]1 [Tozasertib] + O=C(c1cc(Cc2n[nH]c(=O)c3ccccc23)ccc1F)N1CCN(C(=O)C2CC2)CC1 [Olaparib] (partner 8 µM)
How it was run: as §1

Tozasertib + Crizotinib = compound: Cc1cc(Nc2cc(N3CCN(C)CC3)nc(Sc3ccc(NC(=O)C4CC4)cc3)n2)n[nH]1 [Tozasertib] + C[C@@H](Oc1cc(-c2cnn(C3CCNCC3)c2)cnc1N)c1c(Cl)ccc(F)c1Cl [Crizotinib] (partner 1 µM)
How it was run: as §1

Tozasertib + Luminespib = compound: Cc1cc(Nc2cc(N3CCN(C)CC3)nc(Sc3ccc(NC(=O)C4CC4)cc3)n2)n[nH]1 [Tozasertib] + CCNC(=O)c1noc(-c2cc(C(C)C)c(O)cc2O)c1-c1ccc(CN2CCOCC2)cc1 [Luminespib] (partner 0.01 µM)
How it was run: as §1

Cell Line	relative viability (Tozasertib + Decitabine; first compound 0.004 µM)	relative viability (Tozasertib + Decitabine; first compound 0.01265 µM)	relative viability (Tozasertib + Decitabine; first compound 0.1265 µM)	relative viability (Tozasertib + Navitoclax; first compound 0.004 µM)	relative viability (Tozasertib + Navitoclax; first compound 0.01265 µM)	relative viability (Tozasertib + Navitoclax; first compound 0.04 µM)	relative viability (Tozasertib + Navitoclax; first compound 0.1265 µM)	relative viability (Tozasertib + Olaparib; first compound 0.004 µM)	relative viability (Tozasertib + Olaparib; first compound 0.01265 µM)	relative viability (Tozasertib + Olaparib; first compound 0.04 µM)	relative viability (Tozasertib + Olaparib; first compound 0.1265 µM)	relative viability (Tozasertib + Crizotinib; first compound 0.004 µM)	relative viability (Tozasertib + Crizotinib; first compound 0.01265 µM)	relative viability (Tozasertib + Crizotinib; first compound 0.1265 µM)	relative viability (Tozasertib + Luminespib; first compound 0.004 µM)	relative viability (Tozasertib + Luminespib; first compound 0.01265 µM)	relative viability (Tozasertib + Luminespib; first compound 0.04 µM)	relative viability (Tozasertib + Luminespib; first compound 0.1265 µM)	relative viability (Tozasertib + Decitabine; first compound 0.04 µM)	relative viability (Tozasertib + Crizotinib; first compound 0.04 µM)
SK-LU-1	0.653	0.678	0.649	0.894	0.939	0.981	0.635	0.466	0.455	0.432	0.518	0.932	0.977	0.889	0.242	0.211	0.197	0.191	–	–
NCI-H522	0.655	0.746	0.622	–	–	–	–	0.619	–	0.603	0.531	–	–	–	1.36	1.48	1	0.896	0.647	–
LU99A	0.968	0.859	0.504	0.739	0.636	0.715	0.414	0.251	0.212	0.26	0.251	0.627	0.514	0.27	0.225	0.249	0.27	0.218	0.785	0.466
NCI-H2170	0.487	0.446	0.425	0.556	0.565	0.583	0.557	0.566	0.636	0.572	0.519	1.15	1.19	0.736	0.708	0.767	0.744	0.689	0.474	1.02
HCC-44	0.935	0.917	0.766	1.04	0.977	0.985	0.955	0.961	0.924	1.02	0.914	0.861	0.891	0.705	1.04	0.829	0.565	0.796	0.87	0.801
UMC-11	0.597	0.499	0.189	0.381	0.295	0.303	0.13	0.367	0.47	0.362	0.257	0.478	0.568	0.118	1.02	0.983	–	0.422	0.548	0.416
201T	0.854	0.844	0.83	1.16	1.22	1.23	1.16	0.846	0.838	0.849	0.814	1.02	1.05	1.01	1.12	1.06	–	1.11	0.874	1.06
NCI-H2009	0.401	0.352	0.359	1.21	1.16	1.17	1.17	0.739	0.69	0.692	0.698	1.06	1.06	0.847	1.03	0.972	1.06	1.07	0.416	0.988
